Data reported in ChEMBL document CHEMBL3286248, “Easily accessible polycyclic amines that inhibit the wild-type and amantadine-resistant mutants of the M2 channel of influenza A virus” (J Med Chem, 2014).
pEC50: −log10 of the molar value. Counter-ions that a name gives are not always drawn. Activity calls are given as the source filed them. No cut-off for these calls is given here.

Legend:
[1] = test system: Influenza A virus; conditions: mdck
[2] = test system: Matrix protein 2 (Influenza A virus (A/Udorn/307/1972(H3N2))), P0DOF8 [V27A]; conditions: Influenza A virus (A/udorn/1972(H3N2))
[3] = test system: Influenza A virus; conditions: mdck; remark: listed apart in the source
[4] = test system: MDCK; type: functional, cell-based; conditions: Influenza A virus (A/Hong Kong/7/1987(H3N2)), 0.5 to 2 uM
[5] = test system: MDCK; test: Antiviral activity against Influenza A virus (A/HK/7/87(H3N2)) harboring wild type M2 channel infected in MDCK cells assessed as reduction in plaque number at 0.5 uM after 72 hrs by crystal violet staining; type: functional, cell-based; conditions: Influenza A virus (A/Hong Kong/7/1987(H3N2))
[6] = test system: MDCK; test: Antiviral activity against Influenza A virus (A/HK/7/87(H3N2)) harboring wild type M2 channel infected in MDCK cells assessed as reduction in plaque size at 0.5 uM after 72 hrs by crystal violet staining; type: functional, cell-based; conditions: Influenza A virus (A/Hong Kong/7/1987(H3N2))

| SMILES | pEC50 [1] | inhibition [2] | pEC50 [3] | inhibition [4] | Activity [5] | Activity [6] |
| --- | --- | --- | --- | --- | --- | --- |
| C1=CC2C3CC3C1C1CN(C3CCNCC3)CC21 (stereo unspecified) | > 6.10 | inactive | ≥ 6.10 |  |  |  |
| C1=CC2C3CNCC3C1C1CC21 (stereo unspecified) | < 4.00 |  | < 4.00 |  |  |  |
| N=C(N)N1CC2C3CCC(C4CC34)C2C1 (stereo unspecified) | < 4.00 |  | < 4.00 |  |  |  |
| CC12CC34CN(C(=N)N)CC35CC1(C)C(C)(C5)C2(C)C4 (stereo unspecified) | < 4.00 |  | < 4.00 |  |  |  |
| C1CC2C3CNCC3C1C1CC21 (stereo unspecified) | < 4.00 |  | < 4.00 |  |  |  |
| CC12CC34CNCC35CC1(C)C(C)(C5)C2(C)C4 (stereo unspecified) | 5.52 |  | 5.74 | Active |  |  |
| N=C(N)N1CC2C3C=CC(C4C=CC43)C2C1 (stereo unspecified) | < 4.00 |  | < 4.00 | Active |  |  |
| C1CC(N2CC3C4CCC(C5CC45)C3C2)CCN1 (stereo unspecified) | < 4.00 | inactive | < 4.00 |  |  |  |
| N=C(N)N1CC2C3CCC(C4CCC43)C2C1 (stereo unspecified) | < 4.00 |  | < 4.00 |  | Active | Active |
| CC(N)C12CC3CC(CC(C3)C1)C2 (stereo unspecified) [RIMANTADINE HYDROCHLORIDE] | 5.29 |  | 5.12 |  |  |  |
| C1CC2C1C1CCC2C2CNCC12 (stereo unspecified) | < 4.00 |  | < 4.00 |  | Active | Active |
| C1=CC2C1C1C=CC2C2CNCC12 (stereo unspecified) | > 6.10 |  | 5.89 | Active |  |  |
| NC12CC3CC(CC(C3)C1)C2 [AMANTADINE] |  |  | 4.52 |  |  |  |
| N=C(N)N1CC2C3C=CC(C4CC34)C2C1 (stereo unspecified) | < 4.00 |  | < 4.00 |  |  |  |
